Measurements reported in patent US20230330112A1, “COMPOSITION AND TREATMENT FOR CANCER WITH MUTATIONS” (BRIDGE BIOTHERAPEUTICS, INC., priority 2022, published 2023).

Tests used:
[1] = test system: Ba/F3 EGFR 19Del/C797S xenograft; test: Ba/F3 EGFR 19Del/C797S xenograft study; assay type: in vivo, mouse; details: even at 25 mg/kg
Procedure: (§1) For Ba/F3 EGFR 19Del/C797S and EGFR 19Del/T790M/C797S xenografts models, each mouse was inoculated subcutaneously at the right flank with cells (0.5×10^6) in 0.1 mL of PBS supplemented with BD Matrigel (1:1) for tumor development. The animals were randomized, and treatment was started when the average tumor volume reached 150-180 mm^3 for the efficacy study.
(§2) Tumor volumes were measured twice weekly in two dimensions using a caliper, and the volume was expressed in mm^3 using the formula: volume=0.5 a×b^2 where a and b are the long and short diameters of the tumor, respectively. The tumor sizes were then used for the calculations of T/C (treatment/control) values. The tumor volume was used for calculation of tumor growth index (TGI) of each group according to the following formula: TGI (%)=[1-(Tti-Tt0)/(Vci-Vc0)]×100. The bodyweight of mice was measured daily for the dosing phase, and the relative change of bodyweight (RCBW) of each mouse according to the following formula: […]

[2] = test system: Ba/F3 EGFR 19Del/T790M/C797S xenografts; test: Ba/F3 EGFR 19Del/T790M/C797S xenograft study; assay type: in vivo, mouse; details: even at 25 mg/kg
Procedure: as §1, §2

C=CC(=O)Nc1cc(Nc2nccc(-c3cn(C)c4ccccc34)n2)c(OC)cc1N(C)CCN(C)C [osimertinib, reference compound]
tumor growth [1]: did not block the tumor growth
tumor growth [2]: did not block the tumor growth
